pEC50, pIC50: −log10 of the molar value. Like-named read-outs stand apart in the source and are kept apart here.
Experiments:
PRMT5/MEP50 = PRMT5/MEP50 (Homo sapiens (Human), UniProt O14744); test: PRMT5 Biochemical Assay (PRMT5/MEP50 enzyme assay on peptide substrate, 3H-SAM Flashplate); details: PRMT5 biochemical assay; read-out: Biochemical IC50
[1] = tested on: symmetric di-methyl arginine in Z-138 cells; test: Z-138 Methylation Assay (In Cell Western for symmetric di-methyl arginine and DNA content); assay type: cell-based; details: read-out: ICW EC50
Text: [formula] Where top and bottom are the normally allowed to float, but may be fixed at 100 or 0 respectively in a 3-parameter fit. The Hill Coefficient normally allowed to float but may also be fixed at 1 in a 3-parameter fit. Y is the % inhibition and X is the compound concentration. Z-138 Methylation Assay
Z-138 suspension cells were purchased from ATCC (American Type Culture Collection, Manassas, Va.). RPMI/Glutamax medium, penicillin-streptomycin, heat inactivated fetal bovine serum, and D-PBS were purchased from Life Technologies, Grand Island, N.Y., USA. Odyssey blocking buffer, 800CW goat anti-rabbit IgG (H+L) antibody, and Licor Odyssey infrared scanner were purchased from Licor Biosciences, Lincoln, Nebr., USA. Symmetric di-methyl arginine antibody was purchased from EMD Millipore, Billerica, Mass., USA. 16% Paraformaldehyde was purchased from Electron Microscopy Sciences, Hatfield, Pa., USA.
Z-138 suspension cells were maintained in growth medium (RPMI 1640 supplemented with 10% v/v heat inactivated fetal bovine serum and 100 units/mL penicillin-streptomycin) and cultured at 37° C. under 5% CO2.
Cell Treatment, in Cell Western (ICW) for Detection of Symmetric Di-Methyl Arginine and DNA Content.
Z-138 cells were seeded in assay medium at a concentration of 50,000 cells per mL to a 384-well cell culture plate with 50 μL per well. Compound (100 nL) from 384 well source plates was added directly to 384 well cell plate. Plates were incubated at 37° C., 5% CO2 for 96 hours. After four days of incubation, 40 μL of cells from incubated plates were added to poly-D-lysine coated 384 well culture plates (BD Biosciences 356697). Plates were incubated at room temperature for 30 minutes then incubated at 37° C., 5% CO2 for 5 hours. After the incubation, 40 μL per well of 8% paraformaldehyde in PBS (16% paraformaldahyde was diluted to 8% in PBS) was added to each plate and incubated for 30 minutes. Plates were transferred to a Biotek 405 plate washer and washed 5 times with 100 μL per well of wash buffer (1×PBS with 0.1% Triton X-100 (v/v)). Next 30 μL per well of Odyssey blocking buffer were added to each plate and incubated 1 hour at room temperature. Blocking buffer was removed and 20 μL per well of primary antibody was added (symmetric di-methyl arginine diluted 1:100 in Odyssey buffer with 0.1% Tween 20 (v/v)) and plates were incubated overnight (16 hours) at 4° C. Plates were washed 5 times with 100 μL per well of wash buffer. Next 20 μL per well of secondary antibody was added (1:200 800CW goat anti-rabbit IgG (H+L) antibody, 1:1000 DRAQ5 (Biostatus limited) in Odyssey buffer with 0.1% Tween 20 (v/v)) and incubated for 1 hour at room temperature. The plates were washed 5 times with 100 μL per well wash buffer then 1 time with 100 μL per well of water. Plates were allowed to dry at room temperature then imaged on the Licor Odyssey machine which measures integrated intensity at 700 nm and 800 nm wavelengths. Both 700 and 800 channels were scanned.
First, the ratio for each well was determined by:
Each plate included fourteen control wells of DMSO only treatment (minimum inhibition) as well as fourteen control wells for maximum inhibition treated with 3 μM of a reference compound (Background wells). The average of the ratio values for each control type was calculated and used to determine the percent inhibition for each test well in the plate. Reference compound was serially diluted three-fold in DMSO for a total of nine test concentrations, beginning at 3 μM. Percent inhibition was determined and IC50 curves were generated using triplicate wells per concentration of compound. […]

Z-138 cell line = test: Z-138 Proliferation Assay (Cell Titer Glo, 5 days); assay type: cell-based; details: Z-138 cells
Text: [formula] Z-138 Proliferation Assay
Z-138 suspension cells were purchased from ATCC (American Type Culture Collection, Manassas, Va.). RPMI/Glutamax medium, penicillin-streptomycin, heat inactivated fetal bovine serum were purchased from Life Technologies, Grand Island, N.Y., USA. V-bottom polypropylene 384-well plates were purchased from Greiner Bio-One, Monroe, N.C., USA. Cell culture 384-well white opaque plates were purchased from Perkin Elmer, Waltham, Mass., USA. Cell-Titer Glo® was purchased from Promega Corporation, Madison, Wis., USA. SpectraMax M5 plate reader was purchased from Molecular Devices LLC, Sunnyvale, Calif., USA.
Z-138 suspension cells were maintained in growth medium (RPMI 1640 supplemented with 10% v/v heat inactivated fetal bovine serum and cultured at 37° C. under 5% CO2 Under assay conditions, cells were incubated in assay medium (RPMI 1640 supplemented with 10% v/v heat inactivated fetal bovine serum and 100 units/mL penicillin-streptomycin) at 37° C. under 5% CO2.
For the assessment of the effect of compounds on the proliferation of the Z-138 cell line, exponentially growing cells were plated in 384-well white opaque plates at a density of 10,000 cells/ml in a final volume of 50 μl of assay medium. A compound source plate was prepared by performing triplicate nine-point 3-fold serial dilutions in DMSO, beginning at 10 mM (final top concentration of compound in the assay was 20 μM and the DMSO was 0.2%). A 100 nL aliquot from the compound stock plate was added to its respective well in the cell plate. […] After addition of compounds, assay plates were incubated for 5 days at 37° C., 5% CO2, relative humidity >90%.
Cell viability was measured by quantitation of ATP present in the cell cultures, adding 35 μl of Cell Titer Glo® reagent to the cell plates. Luminescence was read in the SpectraMax M5 microplate reader. The concentration of compound inhibiting cell viability by 50% was determined using a 4-parametric fit of the normalized dose response curves.

[2] = Homo sapiens, Z-138, Z-138 cells

Sequence of PRMT5/MEP50 (O14744 other isoform, or with tags, fused parts or gaps): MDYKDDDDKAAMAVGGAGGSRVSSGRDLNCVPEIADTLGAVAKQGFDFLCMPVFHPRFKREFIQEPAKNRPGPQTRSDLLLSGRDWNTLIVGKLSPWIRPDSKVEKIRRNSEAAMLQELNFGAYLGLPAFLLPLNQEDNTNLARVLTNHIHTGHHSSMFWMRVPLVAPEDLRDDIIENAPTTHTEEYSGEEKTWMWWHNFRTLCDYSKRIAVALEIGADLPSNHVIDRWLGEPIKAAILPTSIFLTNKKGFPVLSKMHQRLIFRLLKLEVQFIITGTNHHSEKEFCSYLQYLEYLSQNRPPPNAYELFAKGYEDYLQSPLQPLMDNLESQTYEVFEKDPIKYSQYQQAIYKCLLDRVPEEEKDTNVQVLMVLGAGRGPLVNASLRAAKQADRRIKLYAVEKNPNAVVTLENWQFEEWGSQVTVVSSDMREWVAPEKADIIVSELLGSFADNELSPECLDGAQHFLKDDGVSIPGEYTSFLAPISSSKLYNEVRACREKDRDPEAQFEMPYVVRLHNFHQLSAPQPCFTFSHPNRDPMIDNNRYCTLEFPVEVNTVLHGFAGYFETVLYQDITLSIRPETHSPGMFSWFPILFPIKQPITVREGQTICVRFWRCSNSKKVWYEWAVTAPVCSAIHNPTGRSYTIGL
Sequence of PRMT5/MEP50 (Q9BQA1 other isoform, or with tags, fused parts or gaps partner): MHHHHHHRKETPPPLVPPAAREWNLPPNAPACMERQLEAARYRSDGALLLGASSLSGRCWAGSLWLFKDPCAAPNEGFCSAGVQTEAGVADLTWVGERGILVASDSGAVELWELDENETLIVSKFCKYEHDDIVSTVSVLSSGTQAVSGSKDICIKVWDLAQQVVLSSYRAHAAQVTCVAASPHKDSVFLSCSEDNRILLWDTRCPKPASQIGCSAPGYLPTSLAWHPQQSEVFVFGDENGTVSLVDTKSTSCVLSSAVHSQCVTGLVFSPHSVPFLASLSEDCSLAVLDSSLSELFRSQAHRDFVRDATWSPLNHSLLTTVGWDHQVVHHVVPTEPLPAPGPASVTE

| Structure (SMILES) | pIC50 (PRMT5/MEP50) | pEC50 [1, 2] | pEC50 ([1]; Z-138 cells) | pEC50 (Z-138 cell line; Homo sapiens, Z-138, 120 h) | pEC50 (Z-138 cell line) |
| --- | --- | --- | --- | --- | --- |
| O=C(COc1ccccc1S(=O)(=O)N1CCNC(CO)C1)NC[C@@H](O)CN1CCc2ccccc2C1 (stereo partly drawn) [Compound 217] | 6.00 to 7.00 | 6.00 to 7.00 |  | < 4.70 |  |
| Cn1cnc(CCNC(=O)c2cccc(OCC(=O)NC[C@@H](O)CN3CCc4ccccc4C3)c2)c1 [Compound 218] | 6.00 to 7.00 | < 6.00 |  | < 4.70 |  |
| Cn1c(CCC(=O)NC[C@H](O)CN2CCc3ccccc3C2)nc2ccccc21 [Compound 222] | 6.00 to 7.00 | 6.00 to 7.00 |  | 5.00 to 6.00 |  |
| O=C(COc1nc2ccccc2[nH]1)NC[C@H](O)CN1CCc2ccccc2C1 [Compound 223] | 6.00 to 7.00 | 6.00 to 7.00 |  | 5.00 to 6.00 |  |
| O=C(CCc1cn2ccccc2n1)NC[C@H](O)CN1CCc2ccccc2C1 [Compound 229] | 6.00 to 7.00 | 6.00 to 7.00 |  | 4.30 to 5.00 |  |
| Cn1cncc1CCNC(=O)c1cccc(OCC(=O)NC[C@@H](O)CN2CCc3ccccc3C2)c1 [Compound 231] | 6.00 to 7.00 | < 6.00 |  | < 4.70 |  |
| Cn1cnc(-c2cccc(OCC(=O)NC[C@@H](O)CN3CCc4ccccc4C3)c2)c1 [Compound 234] | 6.00 to 7.00 | < 6.00 |  | < 4.70 |  |
| O=C(COc1ccccc1[C@@H]1CCCCN1)NC[C@@H](O)CN1CCc2ccccc2C1 [Compound 236] | 6.00 to 7.00 | < 6.00 |  | 4.30 to 5.00 |  |
| O=C(COc1ccccc1C1CNCC(O)C1)NC[C@@H](O)CN1CCc2ccccc2C1 (stereo partly drawn) [Compound 237] | 6.00 to 7.00 | < 6.00 |  | < 4.70 |  |
| O=C(CCc1ncc[nH]1)NC[C@H](O)CN1CCc2ccccc2C1 [Compound 240] | 6.00 to 7.00 | 6.00 to 7.00 |  | 4.30 to 5.00 |  |
| Cn1ccnc1CCNC(=O)c1cccc(OCC(=O)NC[C@@H](O)CN2CCc3ccccc3C2)c1 [Compound 245] | 6.00 to 7.00 | < 6.00 |  | < 4.70 |  |
| CN1CCCC(c2c(CS(C)(=O)=O)cccc2OCC(=O)NC[C@@H](O)CN2CCc3ccccc3C2)C1 (stereo partly drawn) [Compound 247] | 6.00 to 7.00 | < 6.00 |  | < 4.70 |  |
| Cc1cccc2[nH]c(CCC(=O)NC[C@H](O)CN3CCc4ccccc4C3)nc12 [Compound 250] | > 7.00 | > 7.00 |  | 5.00 to 6.00 |  |
| O=C(COc1ccccc1C1CCCCN1)NC[C@H](O)CN1CCc2ccccc2C1 (stereo partly drawn) [Compound 253] | > 7.00 | 6.00 to 7.00 |  | 4.30 to 5.00 |  |
| CC1NCCCC1c1ccccc1OCC(=O)NC[C@@H](O)CN1CCc2ccccc2C1 (stereo partly drawn) [Compound 254] | 6.00 to 7.00 | < 6.00 |  | 4.30 to 5.00 |  |
| Cn1cncc1-c1cccc(OCC(=O)NC[C@@H](O)CN2CCc3ccccc3C2)c1 [Compound 255] | 6.00 to 7.00 | 6.00 to 7.00 |  | < 4.70 |  |
| Cn1cc(-c2ccccc2)nc1CCC(=O)NC[C@H](O)CN1CCc2ccccc2C1 [Compound 256] | 6.00 to 7.00 | 6.00 to 7.00 |  | < 4.70 |  |
| CN1CC(CN(C)S(=O)(=O)c2ccccc2OCC(=O)NC[C@@H](O)CN2CCc3ccccc3C2)C1 [Compound 257] | > 7.00 | > 7.00 |  | 6.00 to 7.00 |  |

The next lines start with results.

| pIC50 (PRMT5/MEP50) | pEC50 [1, 2] | pEC50 ([1]; Z-138 cells) | Structure (SMILES) | pEC50 (Z-138 cell line; Homo sapiens, Z-138, 120 h) | pEC50 (Z-138 cell line) |
| --- | --- | --- | --- | --- | --- |
| > 7.00 | > 7.00 |  | CN(CC1CCNC1)S(=O)(=O)c1ccccc1OCC(=O)NC[C@@H](O)CN1CCc2ccccc2C1 (stereo partly drawn) [Compound 219] |  | 6.00 to 7.00 |
| > 7.00 |  | 6.00 to 7.00 | CN(CC1CCNC1)S(=O)(=O)c1ccccc1OCC(=O)NC[C@@H](O)CN1CCc2ccccc2C1 (stereo partly drawn) [Compound 220] |  | 4.30 to 5.00 |
| > 7.00 | 6.00 to 7.00 |  | NC1CCN(S(=O)(=O)c2ccccc2OCC(=O)NC[C@@H](O)CN2CCc3ccccc3C2)C1 (stereo partly drawn) [Compound 221] | 4.30 to 5.00 |  |
| > 7.00 | > 7.00 |  | Cc1ccc2[nH]c(CCC(=O)NC[C@H](O)CN3CCc4ccccc4C3)nc2c1 [Compound 224] | 5.00 to 6.00 |  |
| > 7.00 | > 7.00 |  | O=C(CCc1nc2cc(F)ccc2[nH]1)NC[C@H](O)CN1CCc2ccccc2C1 [Compound 225] | 6.00 to 7.00 |  |
| > 7.00 | > 7.00 |  | O=C(CCc1nc2cc(Cl)ccc2[nH]1)NC[C@H](O)CN1CCc2ccccc2C1 [Compound 226] | 6.00 to 7.00 |  |
| > 7.00 | > 7.00 |  | O=C(CCc1nc2c(Cl)cccc2[nH]1)NC[C@H](O)CN1CCc2ccccc2C1 [Compound 227] | 6.00 to 7.00 |  |
| > 7.00 | > 7.00 |  | CN(C[C@H](O)CN1CCc2ccccc2C1)C(=O)CCc1nc2ccccc2[nH]1 [Compound 228] | 6.00 to 7.00 |  |
| > 7.00 | > 7.00 |  | CN(CC1CNC1)S(=O)(=O)c1ccccc1OCC(=O)NC[C@@H](O)CN1CCc2ccccc2C1 [Compound 232] | 5.00 to 6.00 |  |
| > 7.00 | > 7.00 |  | CN1CCC(CN(C)S(=O)(=O)c2ccccc2OCC(=O)NC[C@@H](O)CN2CCc3ccccc3C2)C1 (stereo partly drawn) [Compound 238] | 6.00 to 7.00 |  |
| > 7.00 | > 7.00 |  | O=C(CNc1nc2ccccc2[nH]1)NC[C@H](O)CN1CCc2ccccc2C1 [Compound 239] | 5.00 to 6.00 |  |
| > 7.00 | > 7.00 |  | O=C(CCc1nc2c(F)cccc2[nH]1)NC[C@H](O)CN1CCc2ccccc2C1 [Compound 241] | 6.00 to 7.00 |  |
| > 7.00 | > 7.00 |  | COc1cccc2[nH]c(CCC(=O)NC[C@H](O)CN3CCc4ccccc4C3)nc12 [Compound 242] | 5.00 to 6.00 |  |
| > 7.00 | > 7.00 |  | O=C(CCc1nc(-c2ccccc2)c[nH]1)NC[C@H](O)CN1CCc2ccccc2C1 [Compound 243] | 5.00 to 6.00 |  |
| > 7.00 | < 6.00 |  | COCCNCCNC(=O)c1cccc(OCC(=O)NC[C@@H](O)CN2CCc3ccccc3C2)c1 [Compound 244] | < 4.70 |  |
| > 7.00 | 6.00 to 7.00 |  | CNC1CN(S(=O)(=O)c2ccccc2OCC(=O)NC[C@@H](O)CN2CCc3ccccc3C2)CC1O (stereo partly drawn) [Compound 246] | < 4.70 |  |
| > 7.00 | > 7.00 |  | COc1ccc2[nH]c(CCC(=O)NC[C@H](O)CN3CCc4ccccc4C3)nc2c1 [Compound 249] | 5.00 to 6.00 |  |

— patent US9745291B2, “PRMT5 inhibitors containing a dihydro- or tetrahydroisoquinoline and uses thereof” (Epizyme, Inc., priority 2012, dated 2017)
